Measured values taken from US8263776B2, “Inhibitors of c-Met protein kinase” (Vertex Pharmaceuticals Incorporated, priority 2009, dated 2012).

Tests used:
c-Met = c-Met (Homo sapiens, UniProt P08581); experiment: c-Met kinase inhibition assay (radiometric, 33P-ATP, polyE4Y substrate); type: biochemical; conditions: 0.5 nM c-Met, 35 μM ATP, competitive tight-binding fit
Description: The compounds of the invention were screened for their ability to inhibit c-Met kinase using a standard radiometric assay. Briefly, in this kinase assay the transfer of the terminal ^33P-phosphate in ^33P-ATP to substrate polyE4Y is interrogated. The assay was carried out in 96-well plates to a final volume of 100 μL per well containing 0.5 nM c-Met, 100 mM HEPES (pH 7.5), 10 mM MgCl2, 25 mM NaCl, 0.01% BSA, 1 mM DTT, 0.5 mg/mL polyE4Y, and 35 μM ATP. Accordingly, compounds of the invention were dissolved in DMSO to make 10 mM initial stock solutions. Serial dilutions in DMSO were then made to obtain the final solutions for the assay. A 1.5 μL aliquot of DMSO or inhibitor in DMSO was added to each well, followed by the addition of ^33P-ATP, and finally the addition of c-Met and polyE4Y (obtained from Sigma). After 20 min, the reaction was quenched with 50 μL of 30% trichloroacetic acid (TCA) containing 4 mM ATP. The reaction mixture was transferred to the 0.66 mm GF filter plates (Corning) and washed three times with 5% TCA. Following the addition of 50 μL of Ultimate Gold™ high efficiency scintillant (Packard Bioscience), the samples were counted in a Packard TopCount NXT Microplate Scintillation and Luminescence Counter (Packard BioScience). The Ki values, shown in Table 2, were calculated using Microsoft Excel Solver macros to fit the data to the kinetic model for competitive tight-binding inhibition.

[1] = test system: Snu5-AP1-Luc-Pest cells (c-Met); experiment: Inhibition of c-Met activity in Snu5 gastric carcinoma cells (Snu5-AP1-Luc-Pest luciferase reporter); type: cell-based; conditions: Homo sapiens, SNU-5, 6 hours incubation, luciferase signal
Description: Compounds of formula I were also screened for their ability to inhibit the Luciferase-induced signal in an engineered Snu5 cell line. Snu5 [obtained from American Type Culture Collection (Catalog number CRL-5973)] is a human gastric carcinoma known to overexpress c-Met, which is constitutively active. The cell line was transduced with the retrovirus, pCLPCX, which contains a genetic construct consisting of 6×AP 1 promoter response elements and a luciferase gene having a C-terminal PEST sequence (proteolytic signal from mouse ornithine decarboxylase, which reduces the half-life of the luciferase). The constitutively active c-Met activates cellular pathways (principally MAP kinase), resulting in AP-1-induced transcription of luciferase-PEST and translation into the final product, the activity of which is quantifiable as a chemiluminescent readout upon the addition of luciferin (Steady-Glo from Promega). Residual luminescence is strongly correlated to the inhibition of c-Met. A stable cell line was obtained by selecting the new cell line (Snu5-AP1-Luc-Pest) with puromycin. The cells were grown in complete media [Iscove's media (Invitrogen) containing 10% fetal bovine serum (FBS, Hyclone) and penicillin/gentamycin (Invitrogen)]. Compounds of the invention were dissolved in DMSO to make 10 mM initial stock solutions. Serial dilutions in DMSO were then made and transferred to complete medium to make a 10× solution. The Snu5-AP1-Luc-Pest cells were counted and diluted to 200,000-cells/mL solution. The cells (90 μL) were added to each well in a 96-well black with clear bottom plate (Costar). Then 10 μL of the 10× compound solution was added to the cells in triplicate. The plates were incubated in a 37° C./5% CO2 incubator. After 6 hours, 50 μL of the Steady-Glo reagent (Promega) was added to each well and placed on a plate shaker for 5 minutes to ensure that the cells were completely lysed. The plate was read on a 1450 Microbeta Liquid Scintillation and Luminescence Counter (Perkin-Elmer). The IC50 values, shown in Table 2, were calculated using a 4-parameter fit using the graphing software Prism (GraphPad).

PDE3A = target: T1, PDE3A (Homo sapiens, UniProt Q14432); experiment: Inhibition of PDE3 (mobility-shift assay, LabChip 3000); type: biochemical; conditions: for IC50: PDE3A, iFL-cAMP substrate, 40 minute incubation; for activity against PDE3 compared with the respective enantiomer: statement in words in the summary
T1 construct: purchased BPS Bioscience 60030
T1 sequence (Q14432 669-1141 limits assumed): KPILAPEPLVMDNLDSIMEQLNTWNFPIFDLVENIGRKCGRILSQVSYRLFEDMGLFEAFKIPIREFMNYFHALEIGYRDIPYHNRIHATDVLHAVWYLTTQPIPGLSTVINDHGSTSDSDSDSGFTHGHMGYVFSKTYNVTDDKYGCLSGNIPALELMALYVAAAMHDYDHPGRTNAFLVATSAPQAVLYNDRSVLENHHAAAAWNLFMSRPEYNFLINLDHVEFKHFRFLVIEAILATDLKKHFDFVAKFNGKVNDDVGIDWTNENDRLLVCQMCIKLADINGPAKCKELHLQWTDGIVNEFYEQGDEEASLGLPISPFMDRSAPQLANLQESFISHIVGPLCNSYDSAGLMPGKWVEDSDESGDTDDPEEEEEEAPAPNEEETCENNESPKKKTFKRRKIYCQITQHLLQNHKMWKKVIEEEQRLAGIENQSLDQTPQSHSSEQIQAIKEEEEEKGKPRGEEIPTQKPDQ
Description: Phosphodiesterase-3 (PDE3) is one of a family of phosphodiesterases responsible for the regulation of cyclic nucleotide second messengers. PDE3 enzymes are involved in regulation of cardiac and vascular smooth muscle contractility. Agents that inhibit PDE3 were originally investigated for the treatment of heart failure but have unwanted arrhythmic side effects. See Dart R. C., Medical Toxicology, Edition 3, page 708; Lippincott 2004.
Compounds of formula I were screened for their ability to inhibit PDE3 in a mobility-shift assay that quantitates the conversion of a flourescent analog of cyclic AMP to a flourescent analog of AMP using a LabChip 3000 (Caliper Life Sciences, Hopkinton, Mass.). Accordingly, a 0.6 μL aliquot of the test compound dissolved in DMSO was placed in a well of a 384-well plate, followed by the addition of a 15 μL aliquot of 200 ng/mL PDE3A (BPS Bioscience, San Diego, Calif., Catalog No. 60030) in 50 mM HEPES buffer at pH 7.5, containing 5 mM MgCl2 and 0.001% Brij-35 (Buffer A). The enzyme and compound were incubated at room temperature for 15 minutes, followed by the addition of a 15 μL aliquot of 2 μM iFL-cAMP (Caliper Life Sciences, Catalog No. 760444) in Buffer A. Following a 40 minute incubation at room temperature, the reaction was quenched by the addition of a 45 μL aliquot of 100 mM HEPES buffer at pH 7.5, containing 30 mM EDTA, 0.015% Brij-35, and 0.1% CR-3 (Caliper Life Sciences). […] Percent conversion was determined using HTS Well Analyzer software (Caliper Life Sciences, v5, SP2). IC50 values were determined using non-linear regression with Prism (v5.0a, GraphPad Software, Inc., La Jolla, Calif.).

Sequence of c-Met (P08581 25-1390): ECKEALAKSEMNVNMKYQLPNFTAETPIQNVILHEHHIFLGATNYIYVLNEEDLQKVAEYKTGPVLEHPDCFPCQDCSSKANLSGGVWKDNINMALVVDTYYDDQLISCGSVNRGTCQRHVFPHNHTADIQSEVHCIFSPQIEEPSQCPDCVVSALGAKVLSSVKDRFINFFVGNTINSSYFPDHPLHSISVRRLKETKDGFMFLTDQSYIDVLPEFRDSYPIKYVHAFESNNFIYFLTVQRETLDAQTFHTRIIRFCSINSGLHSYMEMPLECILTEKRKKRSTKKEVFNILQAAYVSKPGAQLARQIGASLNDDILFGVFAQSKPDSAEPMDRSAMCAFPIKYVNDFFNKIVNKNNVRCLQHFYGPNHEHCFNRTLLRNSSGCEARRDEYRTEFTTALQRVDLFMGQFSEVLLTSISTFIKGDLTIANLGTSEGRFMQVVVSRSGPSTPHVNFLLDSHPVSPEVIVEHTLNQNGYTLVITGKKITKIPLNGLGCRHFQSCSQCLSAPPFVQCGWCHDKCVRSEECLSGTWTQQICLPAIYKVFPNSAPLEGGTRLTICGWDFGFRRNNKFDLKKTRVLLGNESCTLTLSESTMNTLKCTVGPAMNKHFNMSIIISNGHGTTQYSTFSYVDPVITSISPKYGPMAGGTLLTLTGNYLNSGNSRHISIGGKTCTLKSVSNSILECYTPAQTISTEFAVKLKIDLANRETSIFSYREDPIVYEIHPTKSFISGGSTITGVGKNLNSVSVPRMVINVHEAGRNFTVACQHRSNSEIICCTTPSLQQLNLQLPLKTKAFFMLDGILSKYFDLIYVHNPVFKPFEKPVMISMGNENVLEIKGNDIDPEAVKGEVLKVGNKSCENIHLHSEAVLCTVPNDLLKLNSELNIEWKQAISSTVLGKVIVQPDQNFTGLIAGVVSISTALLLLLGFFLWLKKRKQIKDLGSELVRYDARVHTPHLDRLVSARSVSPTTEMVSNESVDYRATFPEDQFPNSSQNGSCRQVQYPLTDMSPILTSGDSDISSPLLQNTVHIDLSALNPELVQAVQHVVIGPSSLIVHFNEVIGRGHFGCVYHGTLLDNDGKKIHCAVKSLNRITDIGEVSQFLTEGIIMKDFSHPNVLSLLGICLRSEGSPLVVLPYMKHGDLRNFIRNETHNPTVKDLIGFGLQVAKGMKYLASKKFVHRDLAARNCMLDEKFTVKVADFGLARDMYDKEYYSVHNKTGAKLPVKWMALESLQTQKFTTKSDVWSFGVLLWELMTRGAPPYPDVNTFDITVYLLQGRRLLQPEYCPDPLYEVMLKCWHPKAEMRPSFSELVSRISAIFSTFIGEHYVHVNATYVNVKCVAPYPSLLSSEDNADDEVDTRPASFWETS

| Structure (SMILES) | Ki (c-Met) | IC50 [1] | IC50 (PDE3A) | activity against PDE3 compared with the respective enantiomer (PDE3A) |
| --- | --- | --- | --- | --- |
| C[C@H](c1ccc2ncccc2c1)c1nnc2sc(-c3cnn(C)c3)nn12 [Compound 1, 6-((R)-1-(6-(1-methyl-1H-pyrazol-4-yl)-[1,2,4]triazolo[3,4-b][1,3,4]thiadiazol-3-yl)ethyl)quinoline] | < 300 nM | < 100 nM | 6600 nM | surprisingly less active against PDE3 than their respective enantiomers |
| C[C@@H](c1ccc2ncccc2c1)c1nnc2sc(-c3cnn(C)c3)nn12 [Compound 1a] | < 300 nM | < 100 nM | 760 nM |  |
| C[C@H](c1c(F)cc2ncccc2c1F)c1nnc2sc(-c3cnn(C)c3)nn12 [Compound 2, 5,7-difluoro-6-((R)-1-(6-(1-methyl-1H-pyrazol-4-yl)-[1,2,4]triazolo[3,4-b][1,3,4]thiadiazol-3-yl)ethyl)quinoline] | < 300 nM | < 100 nM | 6150 nM | surprisingly less active against PDE3 than their respective enantiomers |
| C[C@@H](c1c(F)cc2ncccc2c1F)c1nnc2sc(-c3cnn(C)c3)nn12 [Compound 2a] | < 300 nM | < 100 nM | 150 nM |  |
